Where “and” joins values, the source holds several entries; their conditions need not be identical. Identical values can stand only once.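 Grown in 96-well plates, cells were treated for 48 hours with each compound at five concentrations. Insufficient inhibition: endpoint recorded as highest concentration tested. At the GI50, growth is halved. The concentration for full growth arrest is given as TGI.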
Columns and labels:
Test in all cases: NCI-60 cell line screen, 48 h
[1] = system: T-47D breast
[2] = system: SK-OV-3 ovarian
[3] = system: UACC-257 melanoma
[4] = system: HCT-116 colon
[5] = system: SN12C renal
[6] = system: NCI-H460 lung
[7] = system: HL-60(TB) leukemia
[8] = system: KM12 colon
[9] = system: MCF7 breast
[10] = system: A498 renal

Row | SMILES | TGI [1] | TGI [2] | TGI [3] | TGI [4] | TGI [5] | TGI [6] | TGI [7] | TGI [8] | TGI [9] | TGI [10] | GI50 [4] | GI50 [6] | GI50 [7] | GI50 [8] | GI50 [9]
1 | C#CCOC(=O)C=[N+]=[N-] | > 10 µM | > 10 µM | > 10 µM | > 10 µM | > 10 µM | > 10 µM | > 10 µM | > 10 µM | > 10 µM | > 10 µM |  |  |  |  | 
2 | N#C/C=C(/NC(=O)Nc1ccccc1)N1CCCC1 | > 100 µM | > 100 µM | > 100 µM | > 55.5 µM | > 100 µM | > 55.4 µM | > 100 µM | > 100 µM | > 55 µM | > 100 µM |  |  |  |  | 
3 | CC(C)(C)OC(=O)C1C(=O)NC(=O)CC1C(OCc1ccccc1)C(OCc1ccccc1)C(COCc1ccccc1)OCc1ccccc1 (configuration not stated) | 14.6 µM |  | > 100 µM | > 100 µM | > 100 µM | > 100 µM | > 100 µM and 49.5 µM | > 100 µM | > 100 µM | > 100 µM | > 100 µM and 48.1 µM | > 100 µM and 37.3 µM | 61.7 µM and 12.8 µM | > 100 µM and 24.5 µM | 50 µM and 15.3 µM
4 | C[C@]12CCC(=O)C=C1CC[C@@H]1[C@@H]2CC[C@]2(C)C(=O)/C(=C/c3ccc([N+](=O)[O-])cc3)C[C@@H]12 | > 100 µM | > 100 µM | > 100 µM | > 100 µM | > 100 µM | > 100 µM | > 100 µM | > 100 µM | 23.5 µM | 48.9 µM |  |  |  |  | 
5 | c1ccc(CCCN2C3CCC2CN(CCOC(c2ccccc2)c2ccccc2)C3)cc1 | 13.9 µM | 29.3 µM | 20.8 µM | 19.8 µM | 24.8 µM | 25.8 µM | 23.1 µM | 24.2 µM | 25.8 µM | 21.8 µM |  |  |  |  | 
6 | O=[N+]([O-])C1=Cc2c(O)ccc(O)c2C2OC=CC12 (configuration not stated) | > 71.9 µM | > 100 µM | 29.9 µM | 32.1 µM | 35 µM | 38.2 µM | > 30.4 µM | 32.5 µM | 30.9 µM | 30.1 µM |  |  |  |  | 
7 | Nc1nc(N)c2cc(-c3cc4ccccc4[nH]3)ccc2n1 | 21.7 µM | > 100 µM | 35.1 µM | > 100 µM | > 100 µM | 45.8 µM | 47.7 µM | 43.5 µM | 33.6 µM | 32.7 µM |  |  |  |  | 
8 | CC(=O)N1N=C(c2ccccc2)NC(=O)C1c1cc(C)c(O)c(C)c1 (configuration not stated) | 42 µM | 34.3 µM | 96.7 µM | 54.1 µM | 79.1 µM | > 100 µM | > 100 µM | > 100 µM | 43.6 µM | 67.2 µM |  |  |  |  | 
9 | COP(=O)(OC)[C@@](O)(c1ccccc1)[C@@H](O)[C@H](O)c1ccccc1 | > 100 µM | > 100 µM | > 100 µM | > 100 µM | > 100 µM | > 100 µM | > 100 µM | > 100 µM | 63.3 µM | > 100 µM |  |  |  |  | 
10 | Cc1cc2c(cc1Cl)SSc1cc(Cl)c(C)cc1S(=O)(=O)Nc1nc(N)nn1C(O)n1nc(N)nc1NS2(=O)=O | > 10 µM | > 10 µM | > 10 µM | > 10 µM | > 10 µM | > 10 µM | > 10 µM | > 10 µM | > 10 µM | > 10 µM |  |  |  |  | 
11 | CSC(=Nc1ccccc1)c1c(C)[nH]n(-c2ccccc2)c1=O | > 100 µM | > 100 µM | > 100 µM | > 100 µM | > 100 µM | > 100 µM | > 100 µM | > 100 µM | > 100 µM | > 100 µM |  |  |  |  | 
12 | Cc1ccc2[nH]c3c(c2c1)C1CCC(C(C)(C)C)CC1C1C(=O)N(c2ccc(Oc4ccccc4)cc2)C(=O)C31 (configuration not stated) | > 68.2 µM | 94.7 µM | > 100 µM | > 100 µM | 37 µM | > 100 µM | 8.09 µM | > 100 µM | > 100 µM | 31.5 µM |  |  |  |  | 
13 | COc1ccc(OC)c([N+](=O)[O-])c1-c1nc2sc(Cl)cn2c1/C=N/N=C(N)N | 42.7 µM |  | 37.5 µM | > 100 µM | 37.5 µM | 56.8 µM | 29 µM | 46.3 µM | 46.3 µM | 33.7 µM |  |  |  |  | 
14 | CC1=C[C@H](C[C@]2(C)c3c(c4c(C)cccc4oc3=O)O[C@@H]2C)OC1=O | > 100 µM | > 100 µM | > 100 µM | 30.3 µM | > 100 µM | > 100 µM | 52.5 µM | > 100 µM | > 100 µM | > 100 µM |  |  |  |  | 
15 | Cc1cc(C)c2c(-c3ccccc3)cc(=O)[nH]c2c1 | > 100 µM | > 100 µM | > 100 µM | > 100 µM | > 100 µM | > 100 µM | > 100 µM | > 100 µM | > 100 µM | > 100 µM |  |  |  |  | 
16 | CCN(CC)C1=Nc2ccccc2-n2ccnc2C1 | > 100 µM |  | > 100 µM | > 100 µM | > 100 µM | > 100 µM | > 100 µM | > 100 µM | > 100 µM | > 100 µM |  |  |  |  | 
17 | Fc1ccc(/C=C2\COCC3=C2NC(=S)NC3c2ccc(F)cc2)cc1 (configuration not stated) | 90.1 µM | 79.8 µM | 34.2 µM | 32.1 µM | 33.3 µM | 36 µM | 35.4 µM | 63.2 µM | 39.5 µM | 30.6 µM |  |  |  |  | 
18 | CC1=NN(c2ccccc2)C(=O)/C1=C1\SC(c2ccccc2)(c2ccccc2)c2ccccc21 | > 100 µM | > 100 µM | > 100 µM | > 100 µM | > 100 µM | > 100 µM | > 100 µM | > 100 µM | > 100 µM | > 100 µM |  |  |  |  | 
19 | COc1cc2ncnc(Nc3cccc(Br)c3)c2cc1OC | 48 µM | 19 µM | > 40.9 µM | 39.3 µM | > 52.4 µM | 21.1 µM | > 75.2 µM | 16.1 µM | > 52 µM | 29.4 µM |  |  |  |  | 
20 | O=C1CC(Nc2ccccc2)c2c(Cl)sc(Cl)c21 (configuration not stated) | > 20 µM | 26.3 µM | 3.86 µM | 2.5 µM | 2.66 µM | 24.6 µM | 1.36 µM | 1.94 µM | 5.21 µM | 6.21 µM |  |  |  |  | 
